# Measurements: patent US11053204B2, “Pyrimidinyloxy benzene derivatives as herbicides” (FMC Corporation, priority 2015, dated 2021)
# Assays:
# Type in all cases: in vivo
# [1] = system: Italian ryegrass (Lolium multiflorum); test: Test A postemergence, visual injury rating; conditions: 0 to 100 scale, 0 is no effect, 100 is complete control, approximately 10 days
# Method in brief: (§1)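 Compounds in non-phytotoxic solvent with surfactant applied as soil spray preemergence, or postemergence to plants 2-10 cm at one- to two-leaf stage, in loam/sand. After approximately 10 days in greenhouse, injury rated visually versus untreated controls, 0 (no effect) to 100 (complete control).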
# [2] = system: barnyardgrass (Echinochloa crus-galli); test: Test A postemergence, visual injury rating; conditions: 0 to 100 scale, 0 is no effect, 100 is complete control, approximately 10 days
# Method in brief: as §1
# [3] = system: blackgrass (Alopecurus myosuroides); test: Test A postemergence, visual injury rating; conditions: 0 to 100 scale, 0 is no effect, 100 is complete control, approximately 10 days
# Method in brief: as §1
# [4] = system: corn (Zea mays); test: Test A postemergence, visual injury rating; conditions: 0 to 100 scale, 0 is no effect, 100 is complete control, approximately 10 days
# Method in brief: as §1
# [5] = system: galium (catchweed bedstraw, Galium aparine); test: Test A postemergence, visual injury rating; conditions: 0 to 100 scale, 0 is no effect, 100 is complete control, approximately 10 days
# Method in brief: as §1
# [6] = system: giant foxtail (Setaria faberii); test: Test A postemergence, visual injury rating; conditions: 0 to 100 scale, 0 is no effect, 100 is complete control, approximately 10 days
# Method in brief: as §1
# [7] = system: kochia (Kochia scoparia); test: Test A postemergence, visual injury rating; conditions: 0 to 100 scale, 0 is no effect, 100 is complete control, approximately 10 days
# Method in brief: as §1
# [8] = system: pigweed (Amaranthus retroflexus); test: Test A postemergence, visual injury rating; conditions: 0 to 100 scale, 0 is no effect, 100 is complete control, approximately 10 days
# Method in brief: as §1
# [9] = system: ragweed (common ragweed, Ambrosia elatior); test: Test A postemergence, visual injury rating; conditions: 0 to 100 scale, 0 is no effect, 100 is complete control, approximately 10 days
# Method in brief: as §1
# [10] = system: wheat (Triticum aestivum); test: Test A postemergence, visual injury rating; conditions: 0 to 100 scale, 0 is no effect, 100 is complete control, approximately 10 days
# Method in brief: as §1
# [11] = system: blackgrass (Alopecurus myosuroides); test: Test C postemergence, plant response rating; conditions: for Plant response rating, Blackgrass: scale 0 to 100; for Blackgrass plant response rating: scale 0 to 100 (0 no effect, 100 complete control)
# Method in brief: (§2)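 Pre-emergence: seeds sown in loam soil–sand blend or silt loam and sprayed with test chemicals in a non-phytotoxic solvent mixture with surfactant. Post-emergence: plants 2 to 18 cm (1- to 4-leaf stage) in peat-based potting medium, same formulation. Greenhouse 13 to 15 d; visual rating 0 (no effect) to 100 (complete control) versus controls.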
# [12] = system: chickweed (common chickweed, Stellaria media); test: Test C postemergence, plant response rating; conditions: for Chickweed plant response rating: scale 0 to 100 (0 no effect, 100 complete control)
# Method in brief: as §2
# [13] = system: foxtail, giant (giant foxtail, Setaria faberii); test: Test C postemergence, plant response rating; conditions: for Foxtail, Giant plant response rating: scale 0 to 100 (0 no effect, 100 complete control)
# Method in brief: as §2
# [14] = system: galium (catchweed bedstraw, Galium aparine); test: Test C postemergence, plant response rating; conditions: for Galium plant response rating: scale 0 to 100 (0 no effect, 100 complete control)
# Method in brief: as §2
# [15] = system: oilseed rape (Brassica napus); test: Test C postemergence, plant response rating; conditions: for Oilseed Rape plant response rating: scale 0 to 100 (0 no effect, 100 complete control)
# Method in brief: as §2
# [16] = system: ryegrass, Italian (Italian ryegrass, Lolium multiflorum); test: Test C postemergence, plant response rating; conditions: for Ryegrass, Italian plant response rating: scale 0 to 100 (0 no effect, 100 complete control)
# Method in brief: as §2
# [17] = system: soybean (Glycine max); test: Test C postemergence, plant response rating; conditions: for Soybean plant response rating: scale 0 to 100 (0 no effect, 100 complete control)
# Method in brief: as §2
# [18] = system: waterhemp (common waterhemp, Amaranthus rudis); test: Test C postemergence, plant response rating
# Method in brief: as §2
# [19] = system: wheat (winter wheat, Triticum aestivum); test: Test C postemergence, plant response rating
# Method in brief: as §2
# [20] = 125 g ai/ha, scale 0 to 100 (0 no effect, 100 complete control)
smiles,measurement,setting,value
O=C(CCC(F)(F)C(F)(F)F)c1c(Br)cccc1Oc1ncc(Cl)cn1 [Compound 110],"Ryegrass, Italian plant response rating",[1]; 31 g ai/ha,0
same,"Ryegrass, Italian plant response rating",[1]; 125 g ai/ha,20
same,Barnyardgrass plant response rating,[2]; 31 g ai/ha,30
same,Barnyardgrass plant response rating,[2]; 125 g ai/ha,60
same,Blackgrass plant response rating,[3]; 31 g ai/ha,0
same,Blackgrass plant response rating,[3]; 125 g ai/ha,50
same,Corn plant response rating,[4]; 31 g ai/ha,20
same,Corn plant response rating,[4]; 125 g ai/ha,50
same,Galium plant response rating,[5]; 31 g ai/ha,70
same,Galium plant response rating,[5]; 125 g ai/ha,100
same,"Foxtail, Giant plant response rating",[6]; 31 g ai/ha,30
same,"Foxtail, Giant plant response rating",[6]; 125 g ai/ha,90
same,Kochia plant response rating,[7]; 31 g ai/ha,100
same,Kochia plant response rating,[7]; 125 g ai/ha,100
same,Pigweed plant response rating,[8]; 31 g ai/ha,90
same,Pigweed plant response rating,[8]; 125 g ai/ha,100
same,Ragweed plant response rating,[9]; 31 g ai/ha,0
same,Ragweed plant response rating,[9]; 125 g ai/ha,0
same,Wheat plant response rating,[10]; 31 g ai/ha,0
same,Wheat plant response rating,[10]; 125 g ai/ha,20
same,"Plant response rating, Blackgrass",[11]; 16 g ai/ha,10
same,"Plant response rating, Blackgrass",[11]; 31 g ai/ha,15
same,Blackgrass plant response rating,[11]; 62 g ai/ha,20
same,Blackgrass plant response rating,[11]; 125 g ai/ha,25
same,"Plant response rating, Chickweed","[12]; 16 g ai/ha, scale of 0 to 100",60
same,"Plant response rating, Chickweed","[12]; 31 g ai/ha, scale 0 to 100",95
same,Chickweed plant response rating,[12]; 62 g ai/ha,95
same,Chickweed plant response rating,[12]; 125 g ai/ha,90
same,"Plant response rating, Foxtail, Giant","[13]; 16 g ai/ha, scale of 0 to 100",10
same,"Plant response rating, Foxtail, Giant","[13]; 31 g ai/ha, scale 0 to 100",10
same,"Foxtail, Giant plant response rating",[13]; 62 g ai/ha,25
same,"Foxtail, Giant plant response rating",[13]; 125 g ai/ha,25
same,"Plant response rating, Galium","[14]; 16 g ai/ha, scale of 0 to 100",60
same,"Plant response rating, Galium","[14]; 31 g ai/ha, scale 0 to 100",75
same,Galium plant response rating,[14]; 62 g ai/ha,75
same,Galium plant response rating,[14]; 125 g ai/ha,90
same,"Plant response rating, Oilseed Rape","[15]; 16 g ai/ha, scale of 0 to 100",60
same,"Plant response rating, Oilseed Rape","[15]; 31 g ai/ha, scale 0 to 100",60
same,Oilseed Rape plant response rating,[15]; 62 g ai/ha,85
same,Oilseed Rape plant response rating,[15]; 125 g ai/ha,95
same,"Plant response rating, Ryegrass, Italian","[16]; 16 g ai/ha, scale of 0 to 100",5
same,"Plant response rating, Ryegrass, Italian","[16]; 31 g ai/ha, scale 0 to 100",10
same,"Ryegrass, Italian plant response rating",[16]; 62 g ai/ha,15
same,"Ryegrass, Italian plant response rating",[16]; 125 g ai/ha,20
same,"Plant response rating, Soybean","[17]; 16 g ai/ha, scale of 0 to 100",40
same,"Plant response rating, Soybean","[17]; 31 g ai/ha, scale 0 to 100",40
same,Soybean plant response rating,[17]; 62 g ai/ha,50
same,Soybean plant response rating,[17]; 125 g ai/ha,35
same,"Plant response rating, Waterhemp","[18]; 16 g ai/ha, scale of 0 to 100",85
same,"Plant response rating, Waterhemp","[18]; 31 g ai/ha, scale 0 to 100",90
same,Waterhemp plant response rating,[18]; [20],95
same,"Plant response rating, Wheat","[19]; 16 g ai/ha, scale of 0 to 100",5
same,"Plant response rating, Wheat","[19]; 31 g ai/ha, scale 0 to 100",5
same,Wheat plant response rating,[19]; [20],15
